Ki data for 14 molecules are collected here from ChEMBL document CHEMBL4000248, “Synthesis and biological evaluation of cyclic imides incorporating benzenesulfonamide moieties as carbonic anhydrase I, II, IV and IX inhibitors” (Bioorg Med Chem, 2017).

The term Ki denotes the equilibrium dissociation constant of an inhibitor or competing ligand from its target.

The assay deals with Carbonic anhydrase 9 (Homo sapiens, UniProt Q16790). Put plainly: Inhibition of recombinant human carbonic anhydrase 9 incubated for 10 mins prior to testing by stopped flow CO2 hydrase assay.
Regarding `CC(C)(C)c1ccc2c(c1)C(=O)N(CCc1ccc(S(N)(=O)=O)cc1)C2=O`, the Ki is 0.459 µM.
The same measure for `Cc1ccc2c(c1)C(=O)N(CCc1ccc(S(N)(=O)=O)cc1)C2=O`: 0.39 µM; for `NS(=O)(=O)c1ccc(CCN2C(=O)C=CC2=O)cc1`: 0.274 µM.
Regarding `NS(=O)(=O)c1ccc(CCN2C(=O)c3cccc([N+](=O)[O-])c3C2=O)cc1`, the inhibition constant Ki was 2.67 µM.
Take `NS(=O)(=O)c1ccc(N2C(=O)C3C(C2=O)C2(Cl)C(Cl)=C(Cl)C3(Cl)C2(Cl)Cl)cc1` (centres undefined): the Ki was 0.0137 µM.
The figure for `NS(=O)(=O)c1ccc(CCN2C(=O)c3cc(Cl)c(Cl)cc3C2=O)cc1` is 0.428 µM; for `NS(=O)(=O)c1ccc(CCN2C(=O)c3nccnc3C2=O)cc1` it is 4.19 µM.
For the molecule `NS(=O)(=O)c1ccc(CCN2C(=O)c3ccc([N+](=O)[O-])cc3C2=O)cc1`, the Ki came out at 1.64 µM.
The same measure for `NS(=O)(=O)c1ccc(CCN2C(=O)c3c(Br)c(Br)c(Br)c(Br)c3C2=O)cc1`: 2.39 µM; for `NS(=O)(=O)c1ccc(CCN2C(=O)CCC2=O)cc1`: 0.296 µM; for `NS(=O)(=O)c1ccc(CN2C(=O)C3C(C2=O)C2(Cl)C(Cl)=C(Cl)C3(Cl)C2(Cl)Cl)cc1` (centres undefined): 0.0169 µM.
Take `NS(=O)(=O)c1ccc(CCN2C(=O)[C@H]3CC=CC[C@H]3C2=O)cc1`: the inhibition constant (Ki) is 0.296 µM.
Turning to `NS(=O)(=O)c1ccc(CCN2C(=O)c3ccccc3C2=O)cc1`, the Ki turned out to be 0.296 µM.
Take `NS(=O)(=O)c1ccc(CCN2C(=O)C3C(C2=O)C2(Cl)C(Cl)=C(Cl)C3(Cl)C2(Cl)Cl)cc1` (centres undefined): the Ki amounted to 0.114 µM.
